From ChEMBL document CHEMBL5352478, “Novel pyridine-containing histone deacetylase inhibitors strongly arrest proliferation, induce apoptosis and modulate miRNAs in cancer cells” (Eur J Med Chem, 2023)
Values joined by “and” are separate entries in the source; they are usually repeats but may differ in a detail not shown here. Equal values may be shown once.

Assays:
U-937 [1] = test: Induction of cell cycle arrest in human U-937 cells assessed as accumulation of cells in pre-G1 phase at 5 uM for 24 hrs by PI staining based flow cytometric analysis; format: functional
HL-60 = test: Antiproliferative activity against human HL-60 cells incubated for 48 hrs; format: functional, cell-based; settings: HL-60, 48 h
MV4-11 = test: Antiproliferative activity against human MV4-11 cells incubated for 48 hrs; format: functional, cell-based; settings: MV4-11, 48 h
Histone deacetylase 3 = Histone deacetylase 3 (Homo sapiens, UniProt O15379)
Chain of Histone deacetylase 3 (O15379 whole entry): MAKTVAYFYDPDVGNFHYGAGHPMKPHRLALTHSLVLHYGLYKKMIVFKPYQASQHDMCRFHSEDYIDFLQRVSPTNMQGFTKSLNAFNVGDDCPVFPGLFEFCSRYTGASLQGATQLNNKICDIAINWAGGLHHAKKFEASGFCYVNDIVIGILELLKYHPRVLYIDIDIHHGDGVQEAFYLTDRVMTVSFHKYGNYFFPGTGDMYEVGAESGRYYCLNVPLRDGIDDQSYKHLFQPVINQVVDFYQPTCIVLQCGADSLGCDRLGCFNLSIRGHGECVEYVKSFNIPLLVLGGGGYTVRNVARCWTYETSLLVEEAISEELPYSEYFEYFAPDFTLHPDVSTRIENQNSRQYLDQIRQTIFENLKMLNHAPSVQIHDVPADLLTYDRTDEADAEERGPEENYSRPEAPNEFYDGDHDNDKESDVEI

[2] = target: T1, Polyamine deacetylase HDAC10 (Homo sapiens, UniProt Q969S8)
T1 sequence (Q969S8 whole entry): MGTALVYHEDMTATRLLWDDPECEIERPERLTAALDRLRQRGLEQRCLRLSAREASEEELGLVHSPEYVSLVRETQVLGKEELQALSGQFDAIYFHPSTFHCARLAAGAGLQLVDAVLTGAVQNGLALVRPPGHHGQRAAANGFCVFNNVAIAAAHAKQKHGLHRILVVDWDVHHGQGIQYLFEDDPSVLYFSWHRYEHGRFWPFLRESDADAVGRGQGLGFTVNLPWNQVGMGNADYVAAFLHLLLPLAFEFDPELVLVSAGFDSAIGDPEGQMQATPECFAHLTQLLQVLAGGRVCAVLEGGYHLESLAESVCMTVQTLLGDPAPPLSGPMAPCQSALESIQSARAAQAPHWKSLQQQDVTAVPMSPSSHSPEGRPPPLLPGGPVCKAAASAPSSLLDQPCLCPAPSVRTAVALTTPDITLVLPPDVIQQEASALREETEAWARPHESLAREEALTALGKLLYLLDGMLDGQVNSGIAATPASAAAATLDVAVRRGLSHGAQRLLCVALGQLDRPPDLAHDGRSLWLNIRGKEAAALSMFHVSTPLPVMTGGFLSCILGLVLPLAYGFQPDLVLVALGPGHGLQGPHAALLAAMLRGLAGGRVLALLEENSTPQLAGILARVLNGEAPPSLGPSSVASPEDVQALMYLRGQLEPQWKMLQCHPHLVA

U-937 [3] = test: Antiproliferative activity against human U-937 cells incubated for 48 hrs; format: functional, cell-based; settings: U-937, 48 h
Histone deacetylase 11 [4] = target: T2, Histone deacetylase 11 (Homo sapiens, UniProt Q96DB2)
T2 sequence (Q96DB2 whole entry): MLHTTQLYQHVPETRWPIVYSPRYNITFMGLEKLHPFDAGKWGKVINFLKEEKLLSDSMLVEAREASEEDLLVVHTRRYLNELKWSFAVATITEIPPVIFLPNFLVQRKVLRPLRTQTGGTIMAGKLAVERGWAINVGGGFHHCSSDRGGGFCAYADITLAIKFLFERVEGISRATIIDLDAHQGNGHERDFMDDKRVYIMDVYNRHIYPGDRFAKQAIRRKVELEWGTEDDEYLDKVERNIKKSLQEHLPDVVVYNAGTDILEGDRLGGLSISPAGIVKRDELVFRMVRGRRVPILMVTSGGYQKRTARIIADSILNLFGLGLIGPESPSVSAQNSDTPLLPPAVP

K562 = test: cells; format: functional, cell-based; settings: Homo sapiens, K562, 72 h
Histone deacetylase 8 = target: T3, Histone deacetylase 8 (Homo sapiens, UniProt Q9BY41)
T3 sequence (Q9BY41 whole entry): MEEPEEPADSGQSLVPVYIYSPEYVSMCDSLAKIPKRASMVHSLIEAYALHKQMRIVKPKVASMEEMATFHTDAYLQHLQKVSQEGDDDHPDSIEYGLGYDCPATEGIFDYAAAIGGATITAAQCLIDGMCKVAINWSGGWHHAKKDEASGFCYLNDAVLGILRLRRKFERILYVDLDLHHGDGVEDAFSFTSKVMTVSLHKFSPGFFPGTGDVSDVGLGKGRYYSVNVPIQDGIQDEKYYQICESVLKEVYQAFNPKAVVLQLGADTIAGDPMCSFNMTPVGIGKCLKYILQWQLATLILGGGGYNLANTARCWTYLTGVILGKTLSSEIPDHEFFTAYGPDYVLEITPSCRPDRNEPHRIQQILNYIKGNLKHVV

Histone deacetylase 2 = Histone deacetylase 2 (Homo sapiens, UniProt Q92769)
Chain of Histone deacetylase 2 (Q92769 whole entry): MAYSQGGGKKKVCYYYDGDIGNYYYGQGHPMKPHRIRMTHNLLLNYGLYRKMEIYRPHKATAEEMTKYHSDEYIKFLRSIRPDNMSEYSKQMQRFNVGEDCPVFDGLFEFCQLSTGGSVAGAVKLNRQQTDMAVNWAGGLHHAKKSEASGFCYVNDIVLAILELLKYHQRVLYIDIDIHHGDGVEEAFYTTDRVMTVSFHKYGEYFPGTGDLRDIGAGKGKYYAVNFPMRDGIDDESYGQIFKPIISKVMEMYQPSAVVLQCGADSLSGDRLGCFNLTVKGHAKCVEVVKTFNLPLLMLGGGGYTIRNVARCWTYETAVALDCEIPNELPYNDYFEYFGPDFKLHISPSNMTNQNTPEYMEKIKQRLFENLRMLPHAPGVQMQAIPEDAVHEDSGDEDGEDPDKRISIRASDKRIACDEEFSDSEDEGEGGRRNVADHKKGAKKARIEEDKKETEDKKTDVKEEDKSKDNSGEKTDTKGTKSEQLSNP

HCT-116 = test: cells; format: functional, cell-based; settings: Homo sapiens, HCT-116, 72 h
Histone deacetylase 7 = target: T4, Histone deacetylase 7 (Homo sapiens, UniProt Q8WUI4)
T4 sequence (Q8WUI4 whole entry): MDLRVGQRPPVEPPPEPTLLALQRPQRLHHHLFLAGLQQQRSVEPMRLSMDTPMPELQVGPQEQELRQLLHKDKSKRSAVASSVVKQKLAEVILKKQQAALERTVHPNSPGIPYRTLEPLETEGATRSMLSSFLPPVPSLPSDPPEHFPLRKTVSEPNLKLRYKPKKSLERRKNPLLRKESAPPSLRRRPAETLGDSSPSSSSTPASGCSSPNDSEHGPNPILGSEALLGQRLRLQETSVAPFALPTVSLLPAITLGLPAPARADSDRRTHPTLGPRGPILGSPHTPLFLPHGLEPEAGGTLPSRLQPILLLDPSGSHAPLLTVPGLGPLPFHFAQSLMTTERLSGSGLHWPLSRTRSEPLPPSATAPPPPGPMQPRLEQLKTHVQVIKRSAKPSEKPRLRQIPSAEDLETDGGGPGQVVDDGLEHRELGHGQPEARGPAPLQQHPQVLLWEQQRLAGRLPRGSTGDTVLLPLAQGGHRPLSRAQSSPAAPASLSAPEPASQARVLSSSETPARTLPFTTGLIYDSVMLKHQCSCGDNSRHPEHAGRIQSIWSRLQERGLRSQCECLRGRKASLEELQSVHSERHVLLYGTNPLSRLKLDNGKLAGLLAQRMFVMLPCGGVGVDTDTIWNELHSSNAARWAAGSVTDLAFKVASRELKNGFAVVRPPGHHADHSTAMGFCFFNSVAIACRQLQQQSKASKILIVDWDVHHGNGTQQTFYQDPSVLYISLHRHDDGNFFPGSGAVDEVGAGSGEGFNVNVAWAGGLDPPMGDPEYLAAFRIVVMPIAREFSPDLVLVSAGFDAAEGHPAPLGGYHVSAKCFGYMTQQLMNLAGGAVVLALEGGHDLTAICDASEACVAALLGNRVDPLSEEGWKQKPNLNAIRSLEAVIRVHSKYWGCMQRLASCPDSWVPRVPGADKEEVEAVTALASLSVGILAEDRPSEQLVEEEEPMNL

Histone deacetylase 4 = Histone deacetylase 4 (Homo sapiens, UniProt P56524)
Chain of Histone deacetylase 4 (P56524 whole entry): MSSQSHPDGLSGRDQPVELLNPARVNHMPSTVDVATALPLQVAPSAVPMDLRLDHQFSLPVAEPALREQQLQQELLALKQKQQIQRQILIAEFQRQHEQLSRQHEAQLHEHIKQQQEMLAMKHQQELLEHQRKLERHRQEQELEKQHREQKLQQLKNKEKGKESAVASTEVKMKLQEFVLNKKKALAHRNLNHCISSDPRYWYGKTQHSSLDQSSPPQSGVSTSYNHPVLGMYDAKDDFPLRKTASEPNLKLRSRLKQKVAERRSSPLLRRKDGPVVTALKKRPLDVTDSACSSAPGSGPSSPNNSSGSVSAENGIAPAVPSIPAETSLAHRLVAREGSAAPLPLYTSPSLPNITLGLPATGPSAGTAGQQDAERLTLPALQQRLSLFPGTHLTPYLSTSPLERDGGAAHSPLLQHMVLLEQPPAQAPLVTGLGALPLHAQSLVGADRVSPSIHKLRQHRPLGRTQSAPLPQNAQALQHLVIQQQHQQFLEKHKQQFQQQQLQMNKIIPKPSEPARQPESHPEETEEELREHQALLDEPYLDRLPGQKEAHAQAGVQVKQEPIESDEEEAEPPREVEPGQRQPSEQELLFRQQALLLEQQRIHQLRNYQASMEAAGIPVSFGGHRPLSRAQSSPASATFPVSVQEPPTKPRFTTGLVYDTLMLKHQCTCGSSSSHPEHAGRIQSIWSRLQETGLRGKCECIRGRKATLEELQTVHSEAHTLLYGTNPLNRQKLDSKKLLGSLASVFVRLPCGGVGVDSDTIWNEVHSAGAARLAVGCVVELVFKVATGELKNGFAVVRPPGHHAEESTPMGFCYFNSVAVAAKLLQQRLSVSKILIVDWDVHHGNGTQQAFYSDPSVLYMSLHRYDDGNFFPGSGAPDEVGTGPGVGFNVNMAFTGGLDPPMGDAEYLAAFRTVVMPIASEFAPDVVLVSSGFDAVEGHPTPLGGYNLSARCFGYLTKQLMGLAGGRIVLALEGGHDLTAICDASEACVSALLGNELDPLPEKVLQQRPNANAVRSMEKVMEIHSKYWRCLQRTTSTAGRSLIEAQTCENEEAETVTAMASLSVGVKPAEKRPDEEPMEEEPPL

NB-4 = test: Antiproliferative activity against human NB4 cells incubated for 48 hrs; format: functional, cell-based; settings: NB-4, 48 h
OCI-AML2 = test: Antiproliferative activity against human OCI-AML2 cells incubated for 48 hrs; format: functional, cell-based; settings: OCI-AML2, 48 h
U-937 [5] = test: Induction of cell cycle arrest in human U-937 cells assessed as cell death at 5 uM for 48 hrs by PI staining based flow cytometric analysis; format: functional
Histone deacetylase 9 = Histone deacetylase 9 (Homo sapiens, UniProt Q9UKV0)
Chain of Histone deacetylase 9 (Q9UKV0 whole entry): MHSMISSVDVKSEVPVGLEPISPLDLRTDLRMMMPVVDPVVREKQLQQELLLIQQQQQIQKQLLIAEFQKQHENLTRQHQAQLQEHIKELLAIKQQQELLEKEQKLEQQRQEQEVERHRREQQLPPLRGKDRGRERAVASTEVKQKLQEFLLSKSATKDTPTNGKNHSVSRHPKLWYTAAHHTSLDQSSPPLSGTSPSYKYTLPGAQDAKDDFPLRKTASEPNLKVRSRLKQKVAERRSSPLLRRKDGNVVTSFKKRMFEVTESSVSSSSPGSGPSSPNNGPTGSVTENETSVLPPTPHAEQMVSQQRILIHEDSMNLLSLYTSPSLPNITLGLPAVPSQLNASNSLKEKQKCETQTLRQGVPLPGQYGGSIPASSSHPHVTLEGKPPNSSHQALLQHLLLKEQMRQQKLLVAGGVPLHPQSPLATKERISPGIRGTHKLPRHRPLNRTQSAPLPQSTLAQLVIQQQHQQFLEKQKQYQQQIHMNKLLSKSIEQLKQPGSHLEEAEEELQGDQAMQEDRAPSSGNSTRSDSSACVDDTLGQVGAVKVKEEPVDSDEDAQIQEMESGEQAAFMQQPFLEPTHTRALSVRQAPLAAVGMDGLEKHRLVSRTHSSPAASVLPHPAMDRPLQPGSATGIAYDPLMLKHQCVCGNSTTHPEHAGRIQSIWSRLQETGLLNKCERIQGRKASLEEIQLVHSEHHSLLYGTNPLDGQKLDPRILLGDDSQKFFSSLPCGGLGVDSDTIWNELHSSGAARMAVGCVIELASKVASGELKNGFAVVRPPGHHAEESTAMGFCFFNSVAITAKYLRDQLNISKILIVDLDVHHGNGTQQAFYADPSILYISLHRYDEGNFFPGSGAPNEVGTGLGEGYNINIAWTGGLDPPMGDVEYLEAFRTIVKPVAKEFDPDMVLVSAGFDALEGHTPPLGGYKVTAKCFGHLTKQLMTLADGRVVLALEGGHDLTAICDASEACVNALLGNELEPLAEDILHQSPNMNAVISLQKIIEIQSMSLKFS

Histone deacetylase 5 = Histone deacetylase 5 (Homo sapiens, UniProt Q9UQL6)
Chain of Histone deacetylase 5 (Q9UQL6 whole entry): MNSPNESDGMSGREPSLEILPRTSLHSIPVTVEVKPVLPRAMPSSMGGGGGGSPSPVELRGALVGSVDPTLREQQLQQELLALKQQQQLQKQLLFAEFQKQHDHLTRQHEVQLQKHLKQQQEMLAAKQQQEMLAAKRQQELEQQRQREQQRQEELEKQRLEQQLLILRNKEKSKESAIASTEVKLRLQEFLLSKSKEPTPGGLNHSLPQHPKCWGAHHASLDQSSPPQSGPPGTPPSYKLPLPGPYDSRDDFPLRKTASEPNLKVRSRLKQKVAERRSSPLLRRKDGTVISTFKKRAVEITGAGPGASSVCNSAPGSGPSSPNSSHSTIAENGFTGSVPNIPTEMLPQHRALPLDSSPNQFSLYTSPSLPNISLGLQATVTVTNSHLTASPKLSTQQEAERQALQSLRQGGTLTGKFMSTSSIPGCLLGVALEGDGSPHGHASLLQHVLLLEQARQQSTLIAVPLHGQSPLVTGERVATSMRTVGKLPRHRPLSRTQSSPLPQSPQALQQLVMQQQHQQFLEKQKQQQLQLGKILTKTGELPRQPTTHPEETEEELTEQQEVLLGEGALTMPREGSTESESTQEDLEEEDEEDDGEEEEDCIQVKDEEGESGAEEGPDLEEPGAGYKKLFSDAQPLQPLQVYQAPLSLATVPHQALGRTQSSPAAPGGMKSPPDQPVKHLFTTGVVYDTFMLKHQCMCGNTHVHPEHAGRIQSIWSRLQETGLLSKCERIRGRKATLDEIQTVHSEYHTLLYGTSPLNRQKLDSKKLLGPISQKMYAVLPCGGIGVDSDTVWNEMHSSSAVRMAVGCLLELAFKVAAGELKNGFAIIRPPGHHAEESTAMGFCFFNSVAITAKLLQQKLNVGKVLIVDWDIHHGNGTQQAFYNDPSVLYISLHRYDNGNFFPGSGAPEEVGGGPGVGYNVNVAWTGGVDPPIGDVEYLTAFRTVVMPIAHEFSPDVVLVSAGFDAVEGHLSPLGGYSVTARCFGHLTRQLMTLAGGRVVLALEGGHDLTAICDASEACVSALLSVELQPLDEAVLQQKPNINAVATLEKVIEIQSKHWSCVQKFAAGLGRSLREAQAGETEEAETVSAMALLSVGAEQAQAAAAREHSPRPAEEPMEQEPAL

Histone deacetylase 1 = Histone deacetylase 1 (Homo sapiens, UniProt Q13547)
Chain of Histone deacetylase 1 (Q13547 whole entry): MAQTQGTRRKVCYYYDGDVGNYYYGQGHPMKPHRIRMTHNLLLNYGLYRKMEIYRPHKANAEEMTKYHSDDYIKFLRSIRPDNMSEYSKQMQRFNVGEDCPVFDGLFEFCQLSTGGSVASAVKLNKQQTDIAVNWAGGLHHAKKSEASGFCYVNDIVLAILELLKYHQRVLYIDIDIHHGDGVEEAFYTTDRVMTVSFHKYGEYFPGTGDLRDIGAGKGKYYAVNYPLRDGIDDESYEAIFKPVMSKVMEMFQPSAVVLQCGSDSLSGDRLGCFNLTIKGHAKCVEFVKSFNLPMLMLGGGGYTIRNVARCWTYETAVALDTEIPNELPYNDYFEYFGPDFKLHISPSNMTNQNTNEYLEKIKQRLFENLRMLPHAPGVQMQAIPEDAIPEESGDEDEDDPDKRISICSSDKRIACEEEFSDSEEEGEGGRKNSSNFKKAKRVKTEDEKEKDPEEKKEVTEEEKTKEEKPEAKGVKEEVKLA

Kasumi 1 = test: Antiproliferative activity against human Kasumi 1 cells incubated for 48 hrs; format: functional, cell-based; settings: Kasumi 1, 48 h
U-937 [6] = test: Induction of cell cycle arrest in human U-937 cells assessed as accumulation of cells in pre-G1 phase at 5 uM for 48 hrs by PI staining based flow cytometric analysis; format: functional; settings: 48 h, 5 µM
OCI-AML-3 = test: Antiproliferative activity against human OCI-AML-3 cells incubated for 48 hrs; format: functional, cell-based; settings: OCI-AML-3, 48 h
KARPAS-299 = test: Antiproliferative activity against human KARPAS-299 cells incubated for 48 hrs; format: functional, cell-based; settings: KARPAS-299, 48 h
A549 = test: cells; format: functional, cell-based; settings: Homo sapiens, A549, 72 h
U-937 [7] = test: Induction of cell cycle arrest in human U-937 cells assessed as accumulation of cells in G1 phase at 1 to 5 uM for 48 hrs by PI staining based flow cytometric analysis; format: functional; settings: dose 1-5 µM
[8] = Antiproliferative activity against human IMS-M2 cells incubated for 48 hrs; format: functional, cell-based; settings: IMS-M2, 48 h
Histone deacetylase 11 [9] = target: T2, Histone deacetylase 11; remark: listed apart in the source

Nc1ccccc1NC(=O)c1ccc(NC(=O)Cc2ccc3ccccc3c2)cn1
Activity (U-937 [1]): 10%
IC50 (HL-60): 218 nM
IC50 (MV4-11): 170 nM
IC50 (Histone deacetylase 3): 440 nM
IC50 [2]: 446 nM
IC50 (U-937 [3]): 822 nM
IC50 (Histone deacetylase 11 [4]): Not Active
IC50 (K562): 370 nM
IC50 (Histone deacetylase 8): Not Active
IC50 (Histone deacetylase 2): 227 nM
IC50 (HCT-116): 430 nM
IC50 (Histone deacetylase 7): Not Active
IC50 (Histone deacetylase 4): Not Active
IC50 (NB-4): 210 nM
IC50 (OCI-AML2): 1500 nM
Activity (U-937 [5]): 100%
IC50 (Histone deacetylase 9): Not Active
IC50 (Histone deacetylase 5): Not Active
IC50 (Histone deacetylase 1): 189 nM
IC50 (Kasumi 1): 257 nM
Activity (U-937 [6]): 50% and 30%
IC50 (OCI-AML-3): 4140 nM
IC50 (KARPAS-299): 9270 nM
IC50 (A549): 1280 nM
Activity (U-937 [7]): 70%
IC50 [8]: 155 nM

Nc1ccccc1NC(=O)c1ccc(NC(=O)C(Cc2ccccc2)c2ccccc2)cn1 (stereo unspecified)
Activity (U-937 [1]): 10%
IC50 (Histone deacetylase 3): 515 nM
IC50 [2]: 320 nM
IC50 (K562): 320 nM
IC50 (Histone deacetylase 8): Not Active
IC50 (Histone deacetylase 11 [9]): 85400 nM
IC50 (Histone deacetylase 2): 431 nM
IC50 (HCT-116): 320 nM
IC50 (Histone deacetylase 7): Not Active
IC50 (Histone deacetylase 4): Not Active
IC50 (Histone deacetylase 9): Not Active
IC50 (Histone deacetylase 5): Not Active
IC50 (Histone deacetylase 1): 353 nM
IC50 (A549): 1510 nM
Activity (U-937 [7]): 70%
